The assay has as its target T1, recombinant human G9a protein (Homo sapiens, UniProt Q96KQ7).
T1 construct: purchased BPS Bioscience Inc. #51001
T1 sequence (Q96KQ7 785-1210 limits assumed): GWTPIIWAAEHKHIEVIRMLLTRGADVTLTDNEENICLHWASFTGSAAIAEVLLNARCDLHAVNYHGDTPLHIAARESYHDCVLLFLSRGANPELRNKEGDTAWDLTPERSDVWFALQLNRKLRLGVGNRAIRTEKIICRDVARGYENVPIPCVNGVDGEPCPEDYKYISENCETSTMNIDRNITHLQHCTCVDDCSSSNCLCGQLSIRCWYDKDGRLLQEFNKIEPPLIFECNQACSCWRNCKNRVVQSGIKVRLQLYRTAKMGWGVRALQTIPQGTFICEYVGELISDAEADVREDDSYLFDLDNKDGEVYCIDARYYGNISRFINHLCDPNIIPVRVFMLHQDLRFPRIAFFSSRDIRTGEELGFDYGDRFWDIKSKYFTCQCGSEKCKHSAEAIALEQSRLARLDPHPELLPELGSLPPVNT
The experiment in a line: G9a inhibitory activity test (ALPHA). It counts as biochemical. The settings on record: biotinylated histone H3 peptide (1-21), SAM, read-out: Inhibitory activity (G9a IC50 value). As for the experimental part: The G9a inhibitory activity of each compound was evaluated by measuring the enzymatic activity of G9a by amplified luminescence proximity homogeneous assay (ALPHA). First, 7.5 μL of a dilution of recombinant human G9a protein (BPS Bioscience Inc., #51001) diluted to 0.05 to 0.1 nM with a Tris buffer solution (50 mM Tris-HCl [pH 9.0], 50 mM NaCl, 0.01% Tween-20, 1 mM DTT), and 0.5 μL of the test compound were added to each well of a 384-well microplate (AlphaPlate-384 Shallow Well, PerkinElmer, Inc., #6008359), mixed by vortex, and incubated at room temperature for 10 minutes. 500 nM biotinylated histone H3 peptide (1-21) (AnaSpec Inc., #61702) and 150 μM SAM (Sigma-Aldrich Co. LLC, #A7007) were mixed at 1:1 in advance, and 2 μL of the mixture was added to each well, mixed by vortex, and then incubated at room temperature for 1 hour. AlphaLISA anti-H3K9me2 acceptor beads (PerkinElmer, Inc., #AL117C) and AlphaScreen streptavidin donor beads (PerkinElmer, Inc., #6760002B) were each diluted with an epigenetic buffer (PerkinElmer, Inc., AlphaLISA Epigenetics Buffer Kit #AL008C) to a final concentration of […] after addition. These dilutions were added to the reaction solution in the dark and incubated at room temperature for 1 hour in the dark. Then, measurement was performed using the EnSpire Alpha plate reader (PerkinElmer, Inc., Waltham, Mass., USA). The G9a inhibitory activity of the test compound was calculated as a compound concentration necessary for suppressing G9a enzymatic activity by 50% (IC50 value), by determining the percent inhibition of the compound when the value of a control without the addition of the compound was defined as 0% and the value of a control without the addition of the enzyme was defined as 100%.

Drawing on US20230127046A1, “G9a INHIBITOR” (RIKEN, priority 2019, published 2023), this text covers IC50 for 25 molecules.

The structures appear in SMILES notation.

As a reminder, the IC50 is the concentration that inhibits the measured activity by half. On to `CCCCC(NC(=O)c1[nH]c2c(c1C)C(=O)CC(C)(C)C2)C(=O)NCc1ccc(CCCO)cc1` (stereo not shown) [Example 1-1, N-[1-[[4-(3-hydroxypropyl)phenyl]methylamino]-1-oxohexan-2-yl]-3,6,6-trimethyl-4-oxo-5,7-dihydro-1H-indole-2-carboxamide], for which the IC50 was no less than 200 nM.
Then `CCCCC(NC(=O)c1[nH]c2c(c1C)C(=O)CC(C)(C)C2)C(=O)Nc1ccccc1SC` (stereo not shown) [Example 1-2], with 50 to 200 nM; and `CCCCC(NC(=O)c1[nH]c2c(c1C)C(=O)CC(C)(C)C2)C(=O)Nc1ccc(OC2CN(C)C2)nc1` (stereo not shown) [Example 1-3], with 50 to 200 nM.
Regarding `CCCCC(NC(=O)c1[nH]c2c(c1C)C(=O)CC(C)(C)C2)C(=O)Nc1ccc(CCN2CCCCC2)cc1` (stereo not shown) [Example 1-4], the IC50 is less than 50 nM.
As for `CCCCC(NC(=O)c1[nH]c2c(c1C)C(=O)CC(C)(C)C2)C(=O)Nc1ccc(NC2CCN(C)CC2)nc1` (stereo not shown) [Example 1-5], the IC50 is less than 50 nM.
As for `CCCCC(NC(=O)c1[nH]c2c(c1C)C(=O)CC(C)(C)C2)C(=O)Nc1ccc(OC2CCN(C)CC2)nc1` (stereo not shown) [Example 1-6], the IC50 fell in the range of 50 to 200 nM.
Then `CCCCC(NC(=O)c1[nH]c2c(c1C)C(=O)CC(C)(C)C2)C(=O)Nc1ccc(CN2CCC(F)(F)CC2)cc1` (stereo not shown) [Example 1-7], with no less than 200 nM; and `CCCCC(NC(=O)c1[nH]c2c(c1C)C(=O)CC(C)(C)C2)C(=O)Nc1ccc(OC2CCN(C)CC2)cc1OC` (stereo not shown) [Example 1-8], with less than 50 nM; and `CCCCC(NC(=O)c1[nH]c2c(c1C)C(=O)CC(C)(C)C2)C(=O)Nc1ccc(C#N)cc1` (stereo not shown) [Example 1-9], with no less than 200 nM.
Next, `CCCCC(NC(=O)c1[nH]c2c(c1C)C(=O)CC(C)(C)C2)C(=O)Nc1cccc(C#N)c1` (stereo not shown) [Example 1-10]: no less than 200 nM.
Next, `CCCCC(NC(=O)c1[nH]c2c(c1C)C(=O)CC(C)(C)C2)C(=O)Nc1ccccc1OC` (stereo not shown) [Example 1-11]: no less than 200 nM; `CCCCC(NC(=O)c1[nH]c2c(c1C)C(=O)CC(C)(C)C2)C(=O)Nc1ccccc1C(C)C` (stereo not shown) [Example 1-12]: no less than 200 nM; `CCCCC(NC(=O)c1[nH]c2c(c1C)C(=O)CC(C)(C)C2)C(=O)Nc1ccccc1C` (stereo not shown) [Example 1-13]: no less than 200 nM.
Take `CCCCC(NC(=O)c1[nH]c2c(c1C)C(=O)CC(C)(C)C2)C(=O)Nc1cccc2ncccc12` (stereo not shown) [Example 1-14]: the IC50 was no less than 200 nM.
With `CCCCC(NC(=O)c1[nH]c2c(c1C)C(=O)CC(C)(C)C2)C(=O)Nc1cncc2ccccc12` (stereo not shown) [Example 1-15], the IC50 was no less than 200 nM.
Then `CCCCC(NC(=O)c1[nH]c2c(c1C)C(=O)CC(C)(C)C2)C(=O)Nc1ccccc1SCC` (stereo not shown) [Example 1-16], with 50 to 200 nM.
With `CCCCC(NC(=O)c1[nH]c2c(c1C)C(=O)CC(C)(C)C2)C(=O)Nc1ccnn1CC` (stereo not shown) [Example 1-17], the IC50 was no less than 200 nM.
On to `CCCCC(NC(=O)c1[nH]c2c(c1C)C(=O)CC(C)(C)C2)C(=O)NCc1ccc(OCCN(C)C)cc1` (stereo not shown) [Example 1-18], for which the IC50 fell in the range of 50 to 200 nM.
For `CCCCC(NC(=O)c1[nH]c2c(c1C)C(=O)CC(C)(C)C2)C(=O)Nc1ccccc1CCC` (stereo not shown) [Example 1-19], the IC50 is no less than 200 nM.
For the molecule `CCCCC(NC(=O)c1[nH]c2c(c1C)C(=O)CC(C)(C)C2)C(=O)Nc1ccc(N(C)C2CCN(C)CC2)nc1` (stereo not shown) [Example 1-20], the IC50 is less than 50 nM.
Consider `CCCCC(NC(=O)c1[nH]c2c(c1C)C(=O)CC(C)(C)C2)C(=O)Nc1ccc(C)cc1` (stereo not shown) [Example 1-21], for which the IC50 is no less than 200 nM.
Then `CCCCC(NC(=O)c1[nH]c2c(c1C)C(=O)CC(C)(C)C2)C(=O)Nc1ccccc1COC` (stereo not shown) [Example 1-22], with no less than 200 nM; and `CCCCC(NC(=O)c1[nH]c2c(c1C)C(=O)CC(C)(C)C2)C(=O)Nc1ccccc1CC` (stereo not shown) [Example 1-23], with 50 to 200 nM.
In the case of `CCCCC(NC(=O)c1[nH]c2c(c1C)C(=O)CC(C)(C)C2)C(=O)NC1CCCCC1` (stereo not shown) [Example 1-24], the IC50 is no less than 200 nM.
As for `CCCCC(NC(=O)c1[nH]c2c(c1C)C(=O)CC(C)(C)C2)C(=O)Nc1cccc(C)c1C` (stereo not shown) [Example 1-25], the IC50 is no less than 200 nM.
